Key:
[1] = biological target: T1, peripheral benzodiazepine receptor (PBR) (Rattus norvegicus, UniProt P16257); test: In-house PBR binding assay ([3H]PK11195, rat heart mitochondrial membranes); conditions: in-house radioligand-binding assay
T1 construct: CBR and PBR were obtained from rat brain and heart membrane-fractions, respectively; from tissue; host or cells: Wistar rat heart membranes

[2] = system: human uterine sarcoma MES-SA; test: Growth inhibitory MTT assay, MES-SA; assay type: cell-based; conditions: 72 hours, treated over control
Method: (§1) Growth inhibitory activity of ECO-4601 (Compound 1) and other dibenzodiazepinone analogs was evaluated on a panel of 4 human tumor cell lines: the human uterine sarcoma MES-SA and its doxorubicin-resistant P-glycoprotein over-expressing variant, MES-SA/DX5 as well as non-aggressive and highly aggressive human breast cell lines, MCF-7 and MDA-MB-231, respectively. These four cell lines were obtained from the American Type Culture Collection (Manassas, Va.) and cultured in RPMI plus 10% fetal bovine serum (FBS) and maintained at 37° C. with 5% CO2.
(§2) Exponentially growing cells (5,000 cells per well time; cell number determined with a hemocytometer) were seeded in 96-well flat-bottom plates and allowed to grow overnight. Cells were then incubated for 72 hours with three different concentrations of ECO-4601 or analogs: 30,10, and 3 μM. The in vitro growth inhibitory activity was determined by a commercial MTT assay. All measurements were done in quadruplicate and each experiment was performed 2-3 times. The lower the value, the more cytotoxic is the compound.

[3] = system: MES-SA/DX5 (doxorubicin-resistant P-glycoprotein over-expressing variant); test: Growth inhibitory MTT assay, MES-SA/DX5; assay type: cell-based, human; conditions: 72 hours, treated over control
Method: as §1, §2

[4] = system: human breast cell line MCF-7; test: Growth inhibitory MTT assay, MCF-7; assay type: cell-based; conditions: 72 hours, treated over control
Method: as §1, §2

[5] = system: human breast cell line MDA-MB-231; test: Growth inhibitory MTT assay, MDA-MB-231; assay type: cell-based; conditions: 72 hours, treated over control
Method: as §1, §2

PBR = biological target: T2, PBR (Rattus norvegicus, UniProt P16257); test: In vivo PBR occupancy by PET (11C-(R)-PK11195) following IP administration; conditions: 30 mg/kg IP
T2 construct: from tissue; host or cells: orthotopic rat C6 glioma in Sprague-Dawley rats, in vivo
Method: (R)-1-(2-chlorophenyl)-N-methyl-N-(1-methyl-propyl)-3-isoquinoline carboxamide (R N-desmethyl PK11195), the precursor for the radioisotope-labeled (R) —PK11195, was purchased from ABX (Radeburg, Germany). The synthesis of ^11C-(R)-PK11195 was accomplished by a modification of the method of Camsonne et al. (J. Label. Compd. Radiopharm., 21: 985-991,1984). Briefly, ^11C-methyl iodide (^11C—CH3I) was transferred by a stream of nitrogen gas at a flow rate of 10 ml/min into a reaction medium containing 1 mg or R—N-desmethyl PK11195 previously dissolved in 0.5 mL of dimethylsulfoxide (DMSO) and about 20 mg of sodium hydroxide. The reaction was initiated at room temperature, with a bubbling of the ^11C—CH3I being continued over a 5 minute period. After bubbling was complete, the reaction mixture was left standing for 5 minutes. Purification was performed by high pressure liquid chromatography (HPLC) using a reverse-phase C18 column and a methanol:ammonium formate (20 mM) (80:20) mixture and a mobile phase at a flow rate of 3 mL/min. ^11C—(R) —PK11195 was eluted at 11 minutes and obtained with a specific radioactivity of […].
In vivo PET studies were performed 14 days post tumor implantation. […] Attenuation correction factors, for each rat (total of 7 animals), were determined using a 10 min ^57Co transmission scan acquired immediately prior to the dynamic scan. […]

Molecule | IC50 [1] | % T/C at 10 μM [2] | % T/C at 10 μM [3] | % T/C at 10 μM [4] | % T/C at 10 μM [5] | reduction of PBR occupancy for 11C-(R)-PK11195 binding, average (PBR)
CC(C)=CCC/C(C)=C/CC/C(C)=C/CN1C(=O)c2cccc(O)c2Nc2c1cc(O)c(C1CCCO1)c2O (stereo not drawn) [Compound 100] | 10 nM | 18% | 86% | 38% | 43% | –
10-farnesyl-4,6,8-trihydroxy-5,10-dihydrodibenzo[b,e][1,4]diazepin-11-one [Compound 1] | – | – | – | – | – | 31%
